Consider 24 compounds from patent publication US9242984B2, “Pyrazolyl derivatives as Syk inhibitors” (Merck Sharp & Dohme Corp., priority 2012, dated 2016).

The test deals with T1, recombinant human Syk (GST-hSyk fusion protein) (Homo sapiens, UniProt P43405).
T1 construct: purchased Carna Biosciences 08-176
As to the kind of experiment: Homogeneous Time-Resolved Fluorescence (HTRF) assay for the recombinant human Syk enzyme. Conditions: IC50 class; 10-dose titration, 25 μM ATP; read-out: rhSYK Activity. The test is classed as biochemical. In short, it runs like this:
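IC50 came from a four-parameter fit over ten doses, 10 μM to 0.508 nM, with HTRF read-out (Eu-anti-pTyr antibody, SA-APC, EDTA stop, 30 min). The enzyme, 5 pM GST-hSyk, met compound for 10 min, then phosphorylated 250 nM biotin-peptide with 25 μM ATP and 5 mM Mg for 45 min at room temperature, pH 7.5.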

With `Cc1cc(Nc2nccc(C(F)(F)F)n2)cc(-c2cnn(CC(C)(C)O)c2)c1` [Example 5.12, 2-methyl-1-[4-(3-methyl-5-{[4-(trifluorometh-yl)pyrimidin-2-yl]amino}-phenyl)-1H-pyrazol-1-yl]propan-2-ol], the IC50 is at most 100 nM.

As to `Cc1cc(Nc2nccc(C(F)(F)F)n2)cc(-c2cnn(C[C@@H](O)C(=O)O)c2)c1` [Example 5.16, (2R)-2-hydroxy-3-[4-(3-methyl-5-{[4-(trifluoromethyl)-pyrimidin-2-yl]amino}phenyl)-1H-pyrazol-1-yl]propanoic acid], the IC50 is at most 100 nM.

`Cc1cc(Nc2nccc(C(F)(F)F)n2)cc(-c2cnn(C[C@H](O)C(=O)O)c2)c1` [Example 5.17, (2S)-2-hydroxy-3-[4-(3-methyl-5-{[4-(trifluorometh-yl)pyrimidin-2-yl]amino}-phenyl)-1H-pyrazol-1-yl]propanoic acid]: the IC50 is at most 100 nM.

Take `Cc1cc(Nc2nccc(C(F)F)n2)cc(-c2cnn(CC(O)C(N)=O)c2)c1` (stereo not drawn) [Example 5.18, 3-[4-(3-{[4-(difluoromethyl)pyrimidin-2-yl]amino}-5-methylphenyl)-1H-pyrazol-1-yl]-2-hydroxypropanamide]: the IC50 was at most 100 nM.

`Cc1cc(Nc2nccc(C(F)F)n2)cc(-c2cnn(CC(O)CF)c2)c1` (stereo not drawn) [Example 5.19, 1-[4-(3-{[4-(difluoromethyl)pyrimidin-2-yl]amino}-5-methylphenyl)-1H-pyrazol-1-yl]-3-fluoropropan-2-ol]: the IC50 was at most 100 nM.

Turning to `CCOC(=O)C(O)Cn1cc(-c2cc(C)cc(Nc3nccc(C(F)F)n3)c2)cn1` (stereo not drawn) [Example 5.20, ethyl 3-[4-(3-{[4-(difluoromethyl)pyrimidin-2-yl]amino}-5-methylphenyl)-1H-pyrazol-1-yl]-2-hydroxypropanoate], the IC50 is at most 100 nM.

For `Cc1cc(Nc2nccc(C(F)F)n2)cc(-c2cnn(CC(O)CNC(=O)OC(C)(C)C)c2)c1` (stereo not drawn) [Example 5.21, tert-butyl {3-[4-(3-{[4-(difluoromethyl)pyrimidin-2-yl]amino}-5-methylphenyl)-1H-pyrazol-1-yl]-2-hydroxypropyl}carbamate], the IC50 is at most 100 nM.

Consider `COCC(O)Cn1cc(-c2cc(C)cc(Nc3nccc(C(F)F)n3)c2)cn1` (stereo not drawn) [Example 5.22, 1-[4-(3-{[4-(difluoromethyl)pyrimidin-2-yl]amino}-5-methylphenyl)-1H-pyrazol-1-yl]-3-methoxypropan-2-ol], for which the IC50 was at most 100 nM.

`Cc1cc(Nc2nccc(C(F)F)n2)cc(-c2cnn(CC(O)C(C)C)c2)c1` (stereo not drawn) [Example 5.23, 1-[4-(3-{[4-(difluoromethyl)pyrimidin-2-yl]amino}-5-methylphenyl)-1H-pyrazol-1-yl]-3-methylbutan-2-ol]: the IC50 is at most 100 nM.

Consider `Cc1cc(Nc2nccc(C(F)F)n2)cc(-c2cnn(CC(O)C(F)(F)F)c2)c1` (stereo not drawn) [Example 5.24, 3-[4-(3-{[4-(difluoromethyl)pyrimidin-2-yl]amino}-5-methylphenyl)-1H-pyrazol-1-yl]-1,1,1-trifluoropropan-2-ol], for which the IC50 was at most 100 nM.

As to `Cc1cc(Nc2nccc(C(F)F)n2)cc(-c2cnn(CC(O)Cn3cccn3)c2)c1` (stereo not drawn) [Example 5.25, 1-[4-(3-{[4-(difluoromethyl)pyrimidin-2-yl]amino}-5-methylphenyl)-1H-pyrazol-1-yl]-3-(1H-pyrazol-1-yl)propan-2-ol], the IC50 was at most 100 nM.

For the compound `Cc1cc(Nc2nccc(C(F)F)n2)cc(-c2cnn(CC(O)c3ccccn3)c2)c1` (stereo not drawn) [Example 5.26, 2-[4-(3-{[4-(difluoromethyl)pyrimidin-2-yl]amino}-5-methylphenyl)-1H-pyrazol-1-yl]-1-pyridin-2-ylethanol], the IC50 was at most 100 nM.

`Cc1cc(Nc2nccc(C(F)F)n2)cc(-c2cnn(CC(O)CC3(O)CCCCC3)c2)c1` (stereo not drawn) [Example 5.27, 1-{3-[4-(3-{[4-(difluoromethyl)pyrimidin-2-yl]amino}-5-methylphenyl)-1H-pyrazol-1-yl]-2-hydroxypropyl}cyclohexanol]: the IC50 is at most 100 nM.

Consider `Cc1cc(Nc2nccc(C(F)F)n2)cc(-c2cnn(CC(O)CC3COC(=O)C3)c2)c1` (stereo not drawn) [Example 5.28, 4-{3-[4-(3-{[4-(difluoromethyl)pyrimidin-2-yl]amino}-5-methylphenyl)-1H-pyrazol-1-yl]-2-hydroxypropyl}dihydrofuran-2(3H)-one], for which the IC50 was at most 100 nM.

As for `Cc1cc(Nc2nccc(C(F)F)n2)cc(-c2cnn(CC(O)CC(C)O)c2)c1` (stereo not drawn) [Example 5.29, 1,3,5-trideoxy-1-[4-(3-{[4-(difluoromethyl)pyrimidin-2-yl]amino}-5-methylphenyl)-1H-pyrazol-1-yl]pentitol], the IC50 was at most 100 nM.

Turning to `Cc1cc(Nc2nccc(C(F)F)n2)cc(-c2cnn(CC(O)C(C)(C)C)c2)c1` (stereo not drawn) [Example 5.30, 1-[4-(3-{[4-(difluoromethyl)pyrimidin-2-yl]amino}-5-methylphenyl)-1H-pyrazol-1-yl]-3,3-dimethylbutan-2-ol], the IC50 is at most 100 nM.

On to `Cc1cc(Nc2nccc(C(F)F)n2)cc(-c2cnn(CC(O)COCC(F)(F)F)c2)c1` (stereo not drawn) [Example 5.31, 1-[4-(3-{[4-(difluoromethyl)pyrimidin-2-yl]amino}-5-methylphenyl)-1H-pyrazol-1-yl]-3-(2,2,2-trifluoroethoxy)propan-2-ol], for which the IC50 was at most 100 nM.

As to `CCC(O)(CC)Cn1cc(-c2cc(C)cc(Nc3nccc(C(F)F)n3)c2)cn1` [Example 5.32, 3-{[4-(3-{[4-(difluoromethyl)pyrimidin-2-yl]amino}-5-methylphenyl)-1H-pyrazol-1-yl]methyl}pentan-3-ol], the IC50 is at most 100 nM.

As for `Cc1cc(Nc2nccc(C(F)F)n2)cc(-c2cnn(CC(O)CN3CCCC3=O)c2)c1` (stereo not drawn) [Example 5.33, 1-{3-[4-(3-{[4-(difluoromethyl)pyrimidin-2-yl]amino}-5-methylphenyl)-1H-pyrazol-1-yl]-2-hydroxypropyl}pyrrolidin-2-one], the IC50 is at most 100 nM.

Regarding `Cc1cc(Nc2nccc(C(F)F)n2)cc(-c2cnn(CC(O)C3CCCNC3)c2)c1` (stereo not drawn) [Example 5.34, 2-[4-(3-{[4-(difluoromethyl)pyrimidin-2-yl]amino}-5-methylphenyl)-1H-pyrazol-1-yl]-1-piperidin-3-ylethanol], the IC50 was at most 100 nM.

Turning to `Cc1cc(Nc2nccc(C(F)F)n2)cc(-c2cnn(CC(C)(C)O)c2)c1` [Example 5.35, 1-[4-(3-{[4-(difluoromethyl)pyrimidin-2-yl]amino}-5-methylphenyl)-1H-pyrazol-1-yl]-2-methylpropan-2-ol], the IC50 was at most 100 nM.

On to `Cc1cc(Nc2nccc(C(F)F)n2)cc(-c2cnn(CC(O)C(=O)O)c2)c1` (stereo not drawn) [Example 5.36, 3-[4-(3-{[4-(difluoromethyl)pyrimidin-2-yl]amino}-5-methylphenyl)-1H-pyrazol-1-yl]-2-hydroxypropanoic acid], for which the IC50 is at most 100 nM.

Take `Cc1cc(Nc2nccc(C(F)F)n2)cc(-c2cnn(CC(O)CN)c2)c1` (stereo not drawn) [Example 5.37, 1-amino-3-[4-(3-{[4-(difluoromethyl)pyrimidin-2-yl]amino}-5-methylphenyl)-1H-pyrazol-1-yl]propan-2-ol]: the IC50 was at most 100 nM.

For `Cc1cc(Nc2nccc(C(F)(F)F)n2)cc(-c2cnn(C3CCC(C(=O)O)CC3O)c2)c1` (stereo not drawn) [Example 5.38, 3-hydroxy-4-[4-(3-methyl-5-{[4-(trifluoromethyl)pyrimidin-2-yl]amino}phenyl)-1H-pyrazol-1-yl]cyclohexanecarboxylic acid], the IC50 was at most 100 nM.
